Values quoted from earlier work as cited in US5043107A, “Preparation small unilamellar vesicles including polyene antifungal antibiotics” (Vestar Research, Inc., priority 1989, dated 1991).

Tests used:
[1] = Tremblay et al.
[2] = mammals; clinical use at therapeutic dose levels
[3] = in vivo

Molecule	acute 50% lethal dose (LD50) [1]	toxicity [2]	host toxicity [3]
C[C@@H]1[C@H](O)[C@@H](C)/C=C/C=C/C=C/C=C/C=C/C=C/C=C/[C@H](O[C@@H]2O[C@H](C)[C@@H](O)[C@H](N)[C@@H]2O)C[C@@H]2O[C@](O)(C[C@@H](O)C[C@@H](O)[C@H](O)CC[C@@H](O)C[C@@H](O)CC(=O)O[C@H]1C)C[C@H](O)[C@H]2C(=O)O [Amphotericin B, amphotericin B]	2.3 mg/kg	acute hemolytic crisis and eventual kidney failure	–
liposomal Amphotericin B	–	–	decreased host toxicity
